Results reported in the supplement of paper PMC9663587.

Assays:
Paclitaxel = compound: CC(=O)O[C@H]1C(=O)[C@@]2(C)[C@H]([C@H](OC(=O)c3ccccc3)[C@]3(O)C[C@H](OC(=O)[C@H](O)[C@@H](NC(=O)c4ccccc4)c4ccccc4)C(C)=C1C3(C)C)[C@]1(OC(C)=O)CO[C@@H]1C[C@@H]2O [Paclitaxel]
BSJ-03-123 [1] = compound: T1, CC(=O)c1c(C)c2cnc(Nc3ccc(N4CCN(CCOCCOCCOCCNC(=O)COc5cccc6c5C(=O)N(C5CCC(=O)NC5=O)C6=O)CC4)cn3)nc2n(C2CCCC2)c1=O [BSJ-03-123]
INK128/MLN0128 = compound: CC(C)n1nc(-c2ccc3oc(N)nc3c2)c2c(N)ncnc21 [INK128/MLN0128]
[2] = compound: CCN1CCN(Cc2ccc(Nc3ncc(F)c(-c4cc(F)c5nc(C)n(C(C)C)c5c4)n3)nc2)CC1
Neratinib/HKI272 [3] = compound: T2, CCOc1cc2ncc(C#N)c(Nc3ccc(OCc4ccccn4)c(Cl)c3)c2cc1NC(=O)/C=C/CN(C)C [Neratinib/HKI272]
Volasertib/BI6727 = compound: CC[C@@H]1C(=O)N(C)c2cnc(Nc3ccc(C(=O)N[C@H]4CC[C@H](N5CCN(CC6CC6)CC5)CC4)cc3OC)nc2N1C(C)C [Volasertib/BI6727]
LEE011/Ribociclib [4] = compound: T3, CN(C)C(=O)c1cc2cnc(Nc3ccc(N4CCNCC4)cn3)nc2n1C1CCCC1 [LEE011/Ribociclib]
THZ531 = compound: CN(C)C/C=C/C(=O)Nc1ccc(C(=O)N2CCC[C@@H](Nc3ncc(Cl)c(-c4c[nH]c5ccccc45)n3)C2)cc1 [THZ531]
ABT-737 = compound: CN(C)CC[C@H](CSc1ccccc1)Nc1ccc(S(=O)(=O)NC(=O)c2ccc(N3CCN(Cc4ccccc4-c4ccc(Cl)cc4)CC3)cc2)cc1[N+](=O)[O-] [ABT-737]
[5] = compound: COc1ccc2c(c1)[C@]1(C[C@H]1c1ccc3c(/C=C/c4ccc(CN5C[C@@H](C)O[C@@H](C)C5)cc4)n[nH]c3c1)C(=O)N2
Pictilisib/GDC0941 = compound: CS(=O)(=O)N1CCN(Cc2cc3nc(-c4cccc5[nH]ncc45)nc(N4CCOCC4)c3s2)CC1 [Pictilisib/GDC0941]
Ceritinib/LDK378 = compound: Cc1cc(Nc2ncc(Cl)c(Nc3ccccc3S(=O)(=O)C(C)C)n2)c(OC(C)C)cc1C1CCNCC1 [Ceritinib/LDK378]
Taselisib/GDC0032 = compound: Cc1nc(-c2cn3c(n2)-c2ccc(-c4cnn(C(C)(C)C(N)=O)c4)cc2OCC3)n(C(C)C)n1 [Taselisib/GDC0032]
Tivantinib/ARQ197 = compound: O=C1NC(=O)[C@@H](c2cn3c4c(cccc24)CCC3)[C@@H]1c1c[nH]c2ccccc12 [Tivantinib/ARQ197]
YKL-5-124 = compound: C=CC(=O)Nc1ccc(C(=O)Nc2[nH]nc3c2CN(C(=O)N[C@H](CN(C)C)c2ccccc2)C3(C)C)cc1 [YKL-5-124]; assay: GR value, 72 h; higher = faster growth (1 = untreated, <0 = killing);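 also: breast cancer and non-malignant breast epithelial lines, nine half-log doses, viable cells counted by Hoechst and LIVE/DEAD dye imaging versus time-zero plates and DMSO controls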
BSJ-03-123 [6] = compound: T1, BSJ-03-123; assay: as above
[7] = compound: CCN1CCN(Cc2ccc(Nc3ncc(F)c(-c4cc(F)c5nc(C)n(C(C)C)c5c4)n3)nc2)CC1; assay: as above
Neratinib/HKI272 [8] = compound: T2, Neratinib/HKI272; assay: as above
[9] = compound: CCc1cnn2c(NCc3ccc[n+]([O-])c3)cc(N3CCCC[C@H]3CCO)nc12; assay: as above
LEE011/Ribociclib [10] = compound: T3, LEE011/Ribociclib; assay: as above
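For GR50, 72 h in this document: breast cancer and non-malignant breast epithelial cell lines, Deep Dye Drop or Dye Drop imaging, nine half-log doses, GR normalized to time-zero plates and DMSO-only controls.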

Cell Line: T47D
- GR50, 72 h (Paclitaxel): 0.00353 µM
- GR50, 72 h (BSJ-03-123 [1]): 0.00165 µM
- GR50, 72 h (INK128/MLN0128): 0.00526 µM
- GR50, 72 h [2]: 0.00428 µM
- GR50, 72 h (Neratinib/HKI272 [3]): 0.423 µM
- GR50, 72 h (Volasertib/BI6727): 0.0315 µM
- GR50, 72 h (LEE011/Ribociclib [4]): 0.0057 µM
- GR50, 72 h (THZ531): 0.114 µM
- GR50, 72 h (ABT-737): > 10 µM
- GR50, 72 h [5]: 0.00463 µM
- GR50, 72 h (Pictilisib/GDC0941): 0.155 µM
- GR50, 72 h (Ceritinib/LDK378): 1.56 µM
- GR50, 72 h (Taselisib/GDC0032): 0.00179 µM
- GR50, 72 h (Tivantinib/ARQ197): 0.346 µM
- GR value (YKL-5-124; 0.001 µM): 0.51 GR
- GR value (YKL-5-124; 0.003162 µM): 0.332 GR
- GR value (YKL-5-124; 0.01 µM): 0.172 GR
- GR value (YKL-5-124; 0.03162 µM): 0.143 GR
- GR value (YKL-5-124; 0.1 µM): 0.0629 GR
- GR value (YKL-5-124; 0.3162 µM): 0.0978 GR
- GR value (YKL-5-124; 1 µM): 0.082 GR
- GR value (YKL-5-124; 3.162 µM): 0.0131 GR
- GR value (YKL-5-124; 10 µM): -0.175 GR
- GR value (BSJ-03-123 [6]; 0.001 µM): 0.505 GR
- GR value (BSJ-03-123 [6]; 0.003162 µM): 0.473 GR
- GR value (BSJ-03-123 [6]; 0.01 µM): 0.28 GR
- GR value (BSJ-03-123 [6]; 0.03162 µM): 0.231 GR
- GR value (BSJ-03-123 [6]; 0.1 µM): 0.228 GR
- GR value (BSJ-03-123 [6]; 0.3162 µM): 0.203 GR
- GR value (BSJ-03-123 [6]; 1 µM): 0.115 GR
- GR value (BSJ-03-123 [6]; 3.162 µM): 0.165 GR
- GR value (BSJ-03-123 [6]; 10 µM): 0.118 GR
- GR value ([7]; 0.001 µM): 0.86 GR
- GR value ([7]; 0.003162 µM): 0.604 GR
- GR value ([7]; 0.01 µM): 0.244 GR
- GR value ([7]; 0.03162 µM): 0.0789 GR
- GR value ([7]; 0.1 µM): 0.166 GR
- GR value ([7]; 0.3162 µM): 0.117 GR
- GR value ([7]; 1 µM): 0.171 GR
- GR value ([7]; 3.162 µM): 0.0597 GR
- GR value ([7]; 10 µM): -0.03 GR
- GR value (Neratinib/HKI272 [8]; 0.0003162 µM): 1.02 GR
- GR value (Neratinib/HKI272 [8]; 0.001 µM): 1.01 GR
- GR value (Neratinib/HKI272 [8]; 0.003162 µM): 0.94 GR
- GR value (Neratinib/HKI272 [8]; 0.01 µM): 0.899 GR
- GR value (Neratinib/HKI272 [8]; 0.03162 µM): 0.749 GR
- GR value (Neratinib/HKI272 [8]; 0.1 µM): 0.65 GR
- GR value (Neratinib/HKI272 [8]; 0.3162 µM): 0.584 GR
- GR value (Neratinib/HKI272 [8]; 1 µM): 0.382 GR
- GR value (Neratinib/HKI272 [8]; 3.162 µM): 0.215 GR
- GR value ([9]; 0.0001 µM): 0.999 GR
- GR value ([9]; 0.0003162 µM): 1.01 GR
- GR value ([9]; 0.001 µM): 1.08 GR
- GR value ([9]; 0.003162 µM): 1.12 GR
- GR value ([9]; 0.01 µM): 1.05 GR
- GR value ([9]; 0.03162 µM): -0.0667 GR
- GR value ([9]; 0.1 µM): -0.128 GR
- GR value ([9]; 0.3162 µM): -0.19 GR
- GR value ([9]; 1 µM): -0.22 GR
- GR value (LEE011/Ribociclib [10]; 0.001 µM): 0.614 GR
- GR value (LEE011/Ribociclib [10]; 0.003162 µM): 0.624 GR
- GR value (LEE011/Ribociclib [10]; 0.01 µM): 0.407 GR
- GR value (LEE011/Ribociclib [10]; 0.03162 µM): 0.413 GR
- GR value (LEE011/Ribociclib [10]; 0.1 µM): 0.297 GR
- GR value (LEE011/Ribociclib [10]; 0.3162 µM): 0.244 GR
- GR value (LEE011/Ribociclib [10]; 1 µM): 0.174 GR
- GR value (LEE011/Ribociclib [10]; 3.162 µM): 0.151 GR
- GR value (LEE011/Ribociclib [10]; 10 µM): 0.163 GR
